Reference: paper PMC7321408, “One-Pot Multicomponent Synthesis and Bioevaluation of Tetrahydroquinoline Derivatives as Potential Antioxidants, α-Amylase Enzyme Inhibitors, Anti-Cancerous and Anti-Inflammatory Agents” (Molecules, 2020)
“And” between values parts separate entries of the source, which are not always exact repeats. Equal entries are not always repeated.

Experiments:
[1] = Total reducing power (TRP) assay
Procedure: A TRP assay was carried out to evaluate the reducing potential of synthetic compounds. The method implicates reductones. These reductones are species with antioxidant potential that is believed to be due to their proton-donating capacity. […] The maximum value of reducing power was 104.7 ± 1.9 µg/AAE for SF5, followed by 103.18 ± 2.4 µg/AAE for SF7 and 84.57 ± 1.9 µg/AAE for SF12 (Figure 3 and Figure 4 (standard curve)).
The assay is based on the reduction of Fe^+3 to Fe^+2. The method described by Khan et al. was used with slight modifications. One hundred microliters of test samples (4 mg/mL DMSO) were taken in an Eppendrof tube and 200 μL of phosphate buffer (0.2 mol/L, pH 6.6) and 250 µL of 1% potassium ferricyanide (K3Fe CN)6) were added. This was allowed to incubate at 50 °C for 20 min. Later on, 200 μL of 10% trichloroacetic acid (TCA) was added to the mixture. The mixture was centrifuged at 3000 rpm at room temperature for 10 min. After centrifugation, 150 µL of supernatant were transferred to microplate with FeCl3 (50 μL, 0.1%) and the absorbance was taken at 630 nm. The results were calculated as µg AAE/mg.

brine shrimp nauplii = assay: Brine shrimp lethality bioassay; assay type: in vivo; settings: 24 h, n = 3
Method in brief: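 Ten hatched nauplii per well in artificial seawater were exposed to test compounds at 400, 200, 100 and 50 µg/mL under a lamp. Survivors counted after 24 h; percentage mortality calculated; triplicate.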

raw macrophages = assay: MTT cytotoxicity against raw macrophages; assay type: cell-based, albino rats; settings: mean ± SEM, n = 3
Method in brief: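 Peritoneal macrophages from albino rats were treated for 24 h at 37 °C, 5% CO2 with test compounds at 100, 50, 10 and 1 µM or vehicle, from DMSO stocks. MTT was then added for 2 h, formazan dissolved in DMSO and absorbance read at 570 nm. % viability = blank-corrected sample over blank-corrected control ×100.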

[2] = system: carrageenan-induced paw edema; assay: Carrageenan-induced paw edema (in vivo anti-inflammatory activity); design: species or system BALB/C albino mice; unit not given beside the values; settings: 10 mg/kg, mice, n = 5
Procedure: At 7–8 weeks old, male BALB/C albino mice (29–35 g), were purchased from The National Institute of Health (NIH), Islamabad, Pakistan. Five animals were housed per group and placed in a controlled temperature and humidity-controlled room (22 °C and 66 ± 5%, respectively) in a 12 h light–dark cycle and provided with water and food ad libitum. Ethical approval was taken from the bio-ethical committee of Quaid-I-Azam University (Approval No. BEC-FBS-QAU2018-119) and all protocols were conducted following the Ethical Guide to the Code of Practice for the Housing and Care of Animals Act 1986 (ARRIVE (Animal Research: Reporting In Vivo Experiments) guidelines). The anti-inflammatory activity of the synthesized compounds was evaluated by using the carrageenan-induced rat paw edema assay. To determine the dose response of tetrahydroquinoline derivatives, animals were first given a dose of 0.1, 1 and 10 mg/kg against 100 µL carrageenan (1% solution in normal saline)/paw. Treatment was given 60 min before carrageenan injection. Readings were taken at 4 h post carrageenan injection. The in vivo anti-inflammatory activity was performed following the procedure described by Koksal, et al. in 2017. Paw edema was induced by injecting 100 µL of 1% sterile carrageenan solution into the right hind paw of mice. Synthesized compounds (10 mg/kg), vehicle (saline with 2% DMSO) and drug (acetylsalicylic acid, ASA 10 mg/kg) were administered to the mice orally by gastric intubation 60 min before injecting carrageenan into the right hind paw. The decrease in edema was measured by vernier calipers every 2 h.

[3] = Phosphomolybdenum-based total antioxidant capacity (TAC)
Procedure: In the presence of an antioxidant, the phosphomolybdate ion gets reduced and a green phosphate–molybdate complex is formed, which is analyzed spectrophotometrically.
The total antioxidant capacity was determined by using the phosphomolybdenum-based method. The method is based on the reduction of Mo (VI) to Mo (V), leading to the formation of a green-colored phosphate–molybdenum complex that gives absorption at 630 nm. In 96-well plates, 20 µL of the sample was added with 180 µL TAC reagents in it and incubated at 95 °C for 90 min in a water bath and cooled at room temperature. The results were calculated as µg AAE/mg.

α-amylase enzyme = assay: α-Amylase enzyme inhibitory assay; assay type: biochemical; settings: 200 µg/mL
Procedure: An in vitro α-amylase enzyme inhibitory assay was performed by the standard protocol. Four milligrams per 1 mL of sample was prepared in DMSO. In each well of a 96-well plate, synthetic compounds were added to a final concentration of 200 µg/mL. To this, 15 μL phosphate buffer, […] α-amylase enzyme and 40 μL starch solution were added stepwise. The microplate was incubated at 50 °C for 30 min. […] The formula used to calculate the percent enzyme inhibition is:% Enzyme inhibition = [(As − An) ÷ (Ab − An] × 100
As = sample’s absorbance; An = negative’s absorbance; Ab = blank’s absorbance

Compound	Total reducing power (TRP) [1] [µg/AAE]	LD50 ± SEM (brine shrimp lethality) (brine shrimp nauplii)	IC50 (raw macrophages) [µM]	Paw thickness ([2]; 0 h after carrageenan injection)	Paw thickness ([2]; 2 h after carrageenan injection)	Paw thickness ([2]; 4 h after carrageenan injection)	Paw thickness ([2]; 6 h after carrageenan injection)	Total antioxidant capacity (TAC) [3] [µg/AAE]	% inhibition of α-amylase enzyme (α-amylase enzyme) [%]
c1ccc2c(c1)CCCN2CN1CCCCC1 [SF1, 1-(Piperidine-1-ylmethyl) 1,2,3,4-tetrahahydroquinoline]	33.22 ± 1.5	120 ± 2.3 µg/mL and 120.8 ± 2.3 µg/mL	6.23 ± 0.01	2.06 ± 0.07	2.13 ± 0.03	2.18 ± 0.06	2.25 ± 0.05	–	–
CN1CCN(CN2CCCc3ccccc32)CC1 [SF5]	104.7 ± 1.9	94 ± 1.06 µg/mL	–	–	–	–	–	285.46 ± 2.1	97.37
c1ccc(N(CN2CCCc3ccccc32)c2ccccc2)cc1 [SF7, N-((3,4-dihydroquinolin-1(2H)-yl)methyl)-N-phenylaniline]	103.18 ± 2.4	100.8 ± 1.14 µg/mL	–	–	–	–	–	242.77 ± 2.31	88.67
